According to patent US20230028880A1, “CD38-BINDING AGENTS AND USES THEREOF” (Biohaven Therapeutics Ltd., priority 2019, published 2023):
Where “and” joins values, the source holds several entries; their conditions need not be identical. Equal values may be shown once. *1 amine or outer side, *2 acyl side, *3 side chain or, on linkers, in order; H or OH if unused. Bridges are numbered along the chain shown (N, C = ends). Where no end group is shown, it is not given here. [ ]: non-standard residue; d: D form. d(γGlu) = O=C(O)[C@@H](CCC(=O)[*:2])N[*:1]; 12Ado = NCCCCCCCCCCCC(=O)O

Assays:
[1] = system: Effector cells (ADCC reporter cells) with Daudi cells; test: ADCC reporter assay: Daudi cells, IVIG and ADCC reporter effector cells (luciferase, RLU); format: cell-based; settings: IVIG; for EC50: ADCC reporter assay; for Luminescence, ADCC reporter assay: 18 h, duplicate columns
Experimental: Daudi (ATCC CCL-213) cells were resuspended in Opti-MEM (Thermo Fisher Scientific #31985070), counted (Life Technologies Countless II cell counter) and plated (5,000 cells in 25 uL/well; Corning plates: 3917). Compounds w diluted in DMSO (MP 191418) to 1000× the starting concentration used in the assay into a 96 well polypropylene plate (Corning 3357). They were then serially diluted in ½ log increments to generate 8 concentrations in DMSO (assay dependent). These DMSO stocks were then step diluted 1/250 into Opti-MEM. Step diluted compound range was then added into the polypropylene assay plate 25 uL/well. The human antibody solution (Grifols IVIG Fleogogamma #61953-0005-2) was diluted to 40 ug/mL and added 25 uL/well. Effector cells (ADCC reporter cells—Promega kit: G7018) were added 37,500 in 25 uL/well. The assay was then incubated 18 h at 37° C. Following the induction period, the plate was equilibrated to 25° C. followed the addition of the luciferase substrate (75 uL/well, 1 vial in 10 mL of Bio-Glo assay buffer, Promega kit: G7018). The luminescence was measured (Biotek Synergy H1 microplate reader).

Daudi cells [2] = test: KILR ADCC killing assay: KILR-transfected Daudi cells with purified NK cells (% dead cells); format: cell-based; settings: KILR Daudi cells with purified NK cells, duplicate columns
Excerpt: In some embodiments, CD38-ABT ARMs bind to target cells and antibodies, e.g., human antibodies. In some embodiments, such ternary structures present antibodies to effector cells such as NK cell and bind to, e.g., CD16a receptors. […] Daudi cells were transfected with KILR reporter construct (DiscoverX #97-0002). An attenuated lentivirus was designed to deliver a Moloney Murine Leukemia Virus (MMLV) engineered to drive expression of a housekeeping gene tagged with Enhanced ProLabel (ePL) a beta-Galactosidase (beta-gal) reporter fragment. This construct was designed to remain inside cells. Death leads to the release of the KILR reporter protein into the medium. Detection reagent (DiscoverX #97-0001L) contained the complementing beta-gal reporter fragment enzyme acceptor (EA). The two components combined to generate a chemiluminescent signal.

Daudi cells [3] = test: Ternary binding assay: recruitment of PE-labeled human IgG1k to Daudi cells (flow cytometry, MFI); format: cell-based; settings: duplicate columns
Experimental: Various technologies can be utilized to assess and/or characterize recruitment of antibodies to target cells, e.g., cancer cells. One such assay is a ternary binding assay. An exemplary protocol is described herein. Compounds were diluted in DMSO (MP 191418) to 1000× the starting concentration used in the assay into a 96 well polypropylene plate (Corning 3357). They were then serially diluted in ½ log increments to generate 8-12 concentrations in DMSO (assay dependent). These DMSO stocks were then step diluted 1/100 into PBS (VWR Cat. #20012043). Step diluted compound range was then added into the polypropylene assay plate 1/10 the volume of the assay volume. Daudi (ATCC CCL-213), a non-adherent cell line, were counted and centrifuged and resuspended at a concentration of 100,000 cells per 90 ul in Flow buffer: 1% BSA (American Bio AB01088-00100); 0.5 mM EDTA (VWR 45001-122); PBS (VWR Cat. #20012043) with 11.1 ug/mL human IgG1k Phycoerythrin labeled (SouthernBiotech #0151K-09 PE). The cells were then added into the polypropylene plate with the step diluted compounds and incubated at 37° C. for 30 min. At the end of the incubation, the cells were centrifuged and washed 2× with How buffer containing 0.5% Tween 20 (BP337-500). Samples were analyzed on a BD FacsCelesta. Mean fluorescence was analyzed using Graphpad Prism and curves were fit using log(inhibitor) vs. response—Variable slope (four parameters).

[4] = biological target: CD38 on Daudi cells (human) (UniProt P28907); test: ternary binding, flow cytometry: Daudi cells + PE human IgG1k

| Molecule | EC50 [1] [nM] | Luminescence, ADCC reporter assay ([1]; compound 1 nM) | Luminescence, ADCC reporter assay ([1]; compound 3 nM) | Luminescence, ADCC reporter assay ([1]; compound 10 nM) | Luminescence, ADCC reporter assay ([1]; compound 30 nM) | Luminescence, ADCC reporter assay ([1]; compound 100 nM) | Luminescence, ADCC reporter assay ([1]; compound 300 nM) | Luminescence, ADCC reporter assay ([1]; compound 1000 nM) | Luminescence, ADCC reporter assay ([1]; compound 0.3 nM) | MFI, recruitment of PE-labeled human IgG1k to Daudi cells (Daudi cells [3]; compound 0.03 nM) | MFI, recruitment of PE-labeled human IgG1k to Daudi cells (Daudi cells [3]; compound 0.1 nM) | MFI, recruitment of PE-labeled human IgG1k to Daudi cells (Daudi cells [3]; compound 0.3 nM) | MFI, recruitment of PE-labeled human IgG1k to Daudi cells (Daudi cells [3]; compound 1 nM) | MFI, recruitment of PE-labeled human IgG1k to Daudi cells (Daudi cells [3]; compound 3 nM) | MFI, recruitment of PE-labeled human IgG1k to Daudi cells (Daudi cells [3]; compound 10 nM) | MFI, recruitment of PE-labeled human IgG1k to Daudi cells (Daudi cells [3]; compound 30 nM) | MFI, recruitment of PE-labeled human IgG1k to Daudi cells (Daudi cells [3]; compound 100 nM) | MFI, recruitment of PE-labeled human IgG1k to Daudi cells (Daudi cells [3]; compound 300 nM) | MFI, recruitment of PE-labeled human IgG1k to Daudi cells (Daudi cells [3]; compound 1000 nM) | MFI, recruitment of PE-labeled human IgG1k to Daudi cells (Daudi cells [3]; compound 3000 nM) | other results |
| --- | --- | --- | --- | --- | --- | --- | --- | --- | --- | --- | --- | --- | --- | --- | --- | --- | --- | --- | --- | --- | --- |
| CCCCC[C@@H]1NC(=O)[C@H](CCCNC(=N)N)NC(=O)[C@H](C)NC(=O)CSC[C@@H](C(=O)NCCCC(=O)N[C@@H](CC(=O)O)C(=O)N[C@H]2CSSC[C@@H](C(=O)N[C@H](C(N)=O)[C@@H](C)O)NC(=O)[C@H](Cc3c[nH]c4ccccc34)NC(=O)[C@H](C(C)C)NC(=O)[C@H](CC(C)C)NC(=O)[C@H](CCC(=O)O)NC(=O)CNC(=O)[C@H](CC(C)C)NC(=O)[C@H](Cc3c[nH]cn3)NC(=O)[C@H](Cc3c[nH]c4ccccc34)NC(=O)[C@H](C)NC2=O)NC(=O)[C@H](CC(=O)O)NC(=O)[C@H](CCCCC)NC(=O)[C@H](Cc2ccc(-c3ccccc3)cc2)NC(=O)[C@H](CC(C)C)NC(=O)[C@H](C(C)C)NC(=O)CNC(=O)[C@H](CC(=O)O)NC(=O)[C@H](Cc2c[nH]cn2)NC(=O)[C@H](Cc2ccc(O)cc2)NC1=O [I-30] | 12 | 4174 RLU and 4217 RLU | 4269 RLU and 4452 RLU | 11442 RLU and 11535 RLU | 17189 RLU and 17066 RLU | 20600 RLU and 19749 RLU | 22074 RLU and 21976 RLU | 22085 RLU and 21589 RLU | – | – | – | – | – | – | – | – | – | – | – | – | Luminescence, ADCC reporter assay ([1]; compound 3000 nM): 19456 RLU and 17760 RLU; % dead cells, KILR ADCC killing assay (Daudi cells [2]; compound 1 nM): 14.3% and 14.7%; % dead cells, KILR ADCC killing assay (Daudi cells [2]; compound 3 nM): 14.7% and 15.7%; % dead cells, KILR ADCC killing assay (Daudi cells [2]; compound 10 nM): 14.1%; % dead cells, KILR ADCC killing assay (Daudi cells [2]; compound 100 nM): 17.1% and 18.1%; % dead cells, KILR ADCC killing assay (Daudi cells [2]; compound 300 nM): 19% and 20.6%; % dead cells, KILR ADCC killing assay (Daudi cells [2]; compound 1000 nM): 19.2% and 20% |
| CCCCC[C@@H]1NC(=O)[C@H](CCCNC(=N)N)NC(=O)[C@H](C)NC(=O)CSC[C@@H](C(=O)NCCOCCOCCOCCOCCOCCOCCOCCOCCC(=O)NCCOCCOCCOCCOCCOCCOCCOCCOCCC(=O)N[C@@H](CC(=O)O)C(=O)N[C@H]2CSSC[C@@H](C(=O)N[C@H](C(=O)O)[C@@H](C)O)NC(=O)[C@H](Cc3c[nH]c4ccccc34)NC(=O)[C@H](C(C)C)NC(=O)[C@H](CC(C)C)NC(=O)[C@H](CCC(=O)O)NC(=O)CNC(=O)[C@H](CC(C)C)NC(=O)[C@H](Cc3c[nH]cn3)NC(=O)[C@H](Cc3c[nH]c4ccccc34)NC(=O)[C@H](C)NC2=O)NC(=O)[C@H](CC(=O)O)NC(=O)[C@H](CCCCC)NC(=O)[C@H](Cc2ccc(-c3ccccc3)cc2)NC(=O)[C@H](CC(C)C)NC(=O)[C@H](C(C)C)NC(=O)[C@H](CCC(N)=O)NC(=O)[C@H](CC(=O)O)NC(=O)[C@H](Cc2c[nH]cn2)NC(=O)[C@H](Cc2ccc(O)cc2)NC1=O [I-41] | – | 6793 RLU and 6656 RLU | 15011 RLU and 15516 RLU | 26140 RLU and 28413 RLU | 35410 RLU and 36310 RLU | 40904 RLU and 39344 RLU | 38409 RLU and 39619 RLU | 29516 RLU and 26828 RLU | 4814 RLU and 4964 RLU | 4489 and 2739 | 7612 and 4790 | 3076 and 2422 | 5751 and 3841 | 5283 and 6064 | 9033 and 5065 | 10036 and 10734 | 19188 and 14043 | 23096 and 16482 | 13982 and 11893 | 18339 and 21903 | – |
| CCCCC[C@@H]1NC(=O)[C@H](CCCNC(=N)N)NC(=O)[C@H](C)NC(=O)CSC[C@@H](C(=O)NCCOCCOCCOCCOCCOCCOCCOCCOCCC(=O)NCCOCCOCCOCCOCCOCCOCCOCCOCCC(=O)N[C@@H](CC(=O)O)C(=O)N[C@H]2CSSC[C@@H](C(=O)N[C@H](C(=O)O)[C@@H](C)O)NC(=O)[C@H](Cc3c[nH]c4ccccc34)NC(=O)[C@H](C(C)C)NC(=O)[C@H](CC(C)C)NC(=O)[C@H](CCC(=O)O)NC(=O)CNC(=O)[C@H](CC(C)C)NC(=O)[C@H](Cc3c[nH]cn3)NC(=O)[C@H](Cc3c[nH]c4ccccc34)NC(=O)[C@H](C)NC2=O)NC(=O)[C@H](CC(=O)O)NC(=O)[C@H](CCCCC)NC(=O)[C@H](Cc2ccc(-c3ccccc3)cc2)NC(=O)[C@H](CC(C)C)NC(=O)[C@H](C(C)C)NC(=O)[C@H](CC(N)=O)NC(=O)[C@H](CC(=O)O)NC(=O)[C@H](Cc2c[nH]cn2)NC(=O)[C@H](Cc2ccc(O)cc2)NC1=O [I-42] | 1.4 | 13795 RLU and 13686 RLU | 20721 RLU and 20652 RLU | 32317 RLU and 32373 RLU | 36909 RLU and 40202 RLU | 40344 RLU and 39296 RLU | 39826 RLU and 37835 RLU | 27516 RLU and 28425 RLU | 4468 RLU and 4661 RLU | 7077 and 5990 | 5737 and 4704 | 3879 and 4284 | 4981 and 6900 | 6000 and 5101 | 6189 and 11302 | 9700 and 15077 | 16690 and 17157 | 14190 and 18622 | 20476 and 15023 | 13519 and 15909 | – |
| [d(γGlu)][d(γGlu)][dE](12Ado)[d(γGlu)][d(γGlu)]GGDCAWHLGELVWCT (peptide, part only; not given: PEG8 unit, part only, disulfide 9-19; not fully specified (N-terminus); also: N-terminal PEG8 joins a further peptide chain not given here) [I-28] | – | – | – | – | – | – | – | – | – | – | – | – | – | – | – | – | – | – | – | – | MFI at 1 nM [4]: 216 and 385; MFI at 3 nM [4]: 400 and 751; MFI at 10 nM [4]: 1970 and 1940; MFI at 30 nM [4]: 4030 and 4740; MFI at 100 nM [4]: 5110 and 5380; MFI at 300 nM [4]: 6240 and 5320; MFI at 1000 nM [4]: 5150 and 5380; MFI at 3000 nM [4]: 5220 and 5330 |
